Measurements from patent US8431589B2, “2,4-diaminopyrimidine derivatives” (Novartis AG, priority 2002, dated 2013).
One block for each molecule: values may come before it.

Legend:
[1] = molecular target: T1, human ZAP-70 protein tyrosine kinase (Homo sapiens, UniProt P43403); test: ZAP-70 kinase assay (homogenous, time-resolved FRET, LAT-11 substrate); type: biochemical; conditions: 4 μM ATP
T1 construct: purchased Upstate Biotechnology, Lake Placid, N.Y
T1 sequence (P43403 1-619): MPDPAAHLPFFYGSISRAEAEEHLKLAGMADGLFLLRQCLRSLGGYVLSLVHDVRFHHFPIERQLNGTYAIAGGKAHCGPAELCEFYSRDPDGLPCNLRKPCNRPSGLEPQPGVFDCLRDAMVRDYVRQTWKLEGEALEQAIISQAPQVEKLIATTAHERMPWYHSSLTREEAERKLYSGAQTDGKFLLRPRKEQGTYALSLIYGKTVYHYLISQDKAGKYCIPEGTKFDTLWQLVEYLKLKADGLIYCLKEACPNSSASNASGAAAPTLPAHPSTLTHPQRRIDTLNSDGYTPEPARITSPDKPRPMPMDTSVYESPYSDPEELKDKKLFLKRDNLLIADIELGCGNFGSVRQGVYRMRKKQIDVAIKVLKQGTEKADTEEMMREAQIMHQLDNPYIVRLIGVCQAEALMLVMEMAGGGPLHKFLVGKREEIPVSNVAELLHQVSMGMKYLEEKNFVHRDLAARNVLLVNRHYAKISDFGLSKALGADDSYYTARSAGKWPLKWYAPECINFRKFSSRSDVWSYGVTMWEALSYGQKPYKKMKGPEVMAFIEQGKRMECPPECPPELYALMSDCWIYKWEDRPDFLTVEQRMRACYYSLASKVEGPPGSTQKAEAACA
Text: (§1) More particularly the compounds of the invention are active at the human ZAP-70, FAK and/or Syk protein tyrosine kinases.
(§2) ZAP-70, Lck and Syk are commercially available from Upstate Biotechnology, Lake Placid, N.Y.
Preparation of LAT-11 (SEQ ID NO:1): The peptide LAT-11 used as a substrate in the ZAP-70 kinase assay may be prepared as disclosed in Example 1A of WO 02/12275, the contents of which, particularly with reference to Example 1A, is incorporated herein by reference.
ZAP-70 Kinase assay: The activities of the agents of invention are determined in a homogenous ZAP-70 kinase assay based on time-resolved fluorescence resonance energy transfer. Briefly, 80 nM ZAP-70 are incubated with 80 nM Lck and 4 μM ATP in ZAP-70 kinase buffer (20 mM Tris, pH 7.5, 10 μM Na3VO4, 1 mM DTT, 1 mM MnCl2, 0.01% bovine serum albumin, 0.05% Tween 20) for 1 hour at room temperature in a siliconized polypropylene tube. Then, the selective Lck inhibitor PP2 (4-amino-5-(4-chloro-phenyl)-7-(t-butyl)pyrazolo[3,4-d]pyrimidine; Alexis Biochemicals) is added (final concentration 1.2 μM) and incubated for further 10 min. […] After 1 hour incubation at room temperature fluorescence is measured, e.g., on the Victor2 Multilabel Counter (Wallac) at 665 nm. […] The inhibition obtained in the presence of test compounds was calculated as percent inhibition of the high control. […]

[2] = molecular target: T2, human Syk protein tyrosine kinase (Homo sapiens, UniProt P43405); test: Syk kinase assay (heterogenous DELFIA, poly(Glu, Tyr) substrate); type: biochemical; conditions: ATP 1 μM
T2 construct: purchased Upstate Biotechnology, Lake Placid, N.Y
Procedure: as §1, §2
Syk Kinase assay: The activities of the agents of invention are determined in a heterogenous Syk kinase assay based on the dissociation-enhanced lanthanide fluoroimmunoassay (DELFIA) technology. This method utilizes europium chelate-labelled anti-phosphotyrosine antibodies to detect phosphate transfer by Syk to a polymeric glutamic acid-tyrosine (Glu, Tyr) substrate coated onto microtiter plates as described (Braunwalder A F, Yarwood D R, Sills M A, Lipson K E. Measurement of the protein tyrosine kinase activity of c-src using time-resolved fluorometry of europium chelates. Anal. Biochem. 1996; 238(2):159-64). The amount of phosphorylation is then quantified with time-resolved, dissociation-enhanced fluorescence. Briefly, hundred μl of poly (Glu, Tyr) (4:1; 2 μg/ml in phosphate-buffered saline, PBS) are coated to ELISA plates overnight at room temperature. The poly (Glu, Tyr) solution is removed and 250 μl of 1% bovine serum albumin in PBS are added for one hour at room temperature. […] Fluorescence is determined at 615 nm (Victor2; Wallac). […] The inhibition obtained in the presence of test compounds was calculated as percent inhibition of the high control. […]

[3] = molecular target: T3, recombinant hexahistidine-tagged human FAK kinase domain (Homo sapiens, UniProt Q05397); test: FAK assay (FRET, Biot-Y397 substrate); type: biochemical
T3 construct: the kinase domain of FAK (Met384-Gly706) from position 29 to 351; made in house; host or cells: baculovirus; Sf9 and ExpresSF+ insect cells
T3 sequence (Q05397 384-706): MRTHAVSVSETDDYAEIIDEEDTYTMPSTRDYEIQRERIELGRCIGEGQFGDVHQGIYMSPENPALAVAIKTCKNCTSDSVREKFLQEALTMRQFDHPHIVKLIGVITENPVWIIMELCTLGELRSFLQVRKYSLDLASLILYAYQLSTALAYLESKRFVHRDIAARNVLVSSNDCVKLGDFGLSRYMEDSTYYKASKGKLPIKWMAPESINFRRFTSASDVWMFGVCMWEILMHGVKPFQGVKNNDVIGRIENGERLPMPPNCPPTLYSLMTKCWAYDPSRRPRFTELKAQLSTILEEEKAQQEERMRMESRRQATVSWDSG
Procedure: All steps are performed in a 96-well black microtiter plate. Purified recombinant hexahistidine-tagged human FAK kinase domain is diluted with dilution buffer (50 mM HEPES, pH 7.5, 0.01% BSA, 0.05% Tween-20 in water) to a concentration of 94 ng/mL (2.5 nM). The reaction mixture is prepared by mixing 10 μL 5× kinase buffer (250 mM HEPES, pH 7.5, 50 μM Na3VO4, 5 mM DTT, 10 mM MgCl2, 50 mM MnCl2, 0.05% BSA, 0.25% Tween-20 in water), 20 μL water, 5 μL of 4 μM biotinylated peptide substrate (Biot-Y397) in aqueous solution, 5 μL of test compound in DMSO, and 5 μL of recombinant enzyme solution and incubated for 30 min at room temperature. The enzyme reaction is started by addition of 5 μL of 5 μM ATP in water and the mixture is incubated for 3 hours at 37° C. The reaction is terminated by addition of 200 μL of detection mixture (1 nM Eu-PT66, 2.5 μg/mL SA-(SL)APC, 6.25 mM EDTA in dilution buffer), and the FRET signal from europium to allophycocyanin is measured by ARVOsx+L (Perkin Elmer) after 30 min of incubation at room temperature. The ratio of fluorescence intensity of 665 nm to 615 nm is used as a FRET signal for data analysis in order to cancel the colour quenching effect by a test compound. The results are determined as percent inhibition of enzyme activity. […] IC50 values are determined by non-linear curve fit analysis using the OriginPro 6.1 program (OriginLab).

FAK = molecular target: T4, FAK (Mus musculus, UniProt P34152); test: Phosphorylation levels of FAK at Tyr397 (sandwich ELISA) in 4T1 cells; type: cell-based; conditions: 1 h incubation, read-out: IC50, 50% reduction of phosphorylation level of FAK (Tyr397)
T4 construct: endogenous in cells; host or cells: mouse mammary carcinoma 4T1 cells
T4 sequence (P34152 whole entry): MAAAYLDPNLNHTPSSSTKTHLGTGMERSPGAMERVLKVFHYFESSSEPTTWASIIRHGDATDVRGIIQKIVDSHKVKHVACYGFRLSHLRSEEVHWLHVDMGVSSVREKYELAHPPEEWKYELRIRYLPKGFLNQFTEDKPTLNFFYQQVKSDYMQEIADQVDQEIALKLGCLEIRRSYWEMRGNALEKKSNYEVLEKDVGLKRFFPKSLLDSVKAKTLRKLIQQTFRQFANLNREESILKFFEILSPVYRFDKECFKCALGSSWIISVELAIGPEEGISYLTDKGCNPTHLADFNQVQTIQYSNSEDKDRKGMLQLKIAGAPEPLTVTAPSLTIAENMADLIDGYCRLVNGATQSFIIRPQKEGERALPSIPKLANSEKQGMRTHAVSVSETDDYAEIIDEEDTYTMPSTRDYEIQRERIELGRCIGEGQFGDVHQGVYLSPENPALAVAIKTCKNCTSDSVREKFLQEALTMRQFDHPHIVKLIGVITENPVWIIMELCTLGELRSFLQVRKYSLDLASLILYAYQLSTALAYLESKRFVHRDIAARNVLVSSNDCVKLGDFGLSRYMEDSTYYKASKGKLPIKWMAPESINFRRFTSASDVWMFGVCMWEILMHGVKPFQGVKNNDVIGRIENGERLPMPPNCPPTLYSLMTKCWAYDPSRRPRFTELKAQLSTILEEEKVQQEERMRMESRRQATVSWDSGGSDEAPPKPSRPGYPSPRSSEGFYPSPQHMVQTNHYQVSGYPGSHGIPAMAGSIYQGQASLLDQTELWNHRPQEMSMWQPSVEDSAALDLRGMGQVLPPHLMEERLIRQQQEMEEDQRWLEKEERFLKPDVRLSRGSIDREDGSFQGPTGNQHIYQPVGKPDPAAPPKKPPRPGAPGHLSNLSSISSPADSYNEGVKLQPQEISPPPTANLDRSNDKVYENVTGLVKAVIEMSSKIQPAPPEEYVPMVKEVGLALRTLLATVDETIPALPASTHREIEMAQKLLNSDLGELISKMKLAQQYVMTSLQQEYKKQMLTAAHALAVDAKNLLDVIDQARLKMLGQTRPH
Procedure: Phosphorylation levels of FAK at Tyr397 are quantified by the sandwich ELISA. Mouse mammary carcinoma 4T1 cells (1×10^5) are plated in wells of 96-well culture plates and incubated with or without various concentrations of a compound of formula I for 1 h in Dulbecco's modified eagle medium containing 10% FBS. The medium is removed and cells are lysed in 200 μL 50 mM Tris-HCl, pH 7.4, containing 1% NP-40, 0.25% sodium deoxycholate, 150 mM NaCl, 1 mM EDTA, 1 mM PMSF, 1 mM Na3VO4, 1 mM NaF, 1 μg/mL aprotinin, 1 μg/mL leupeptin and 1 μg/mL pepstatin. After centrifugation, the supernatants are subjected to a sandwich ELISA to quantify the phosphorylated FAK and total FAK. […] After washing with TBSN (20 mM Tris-HCl, pH 8.3, containing 300 mM NaCl, 0.1% SDS and 0.05% NP-40), total FAK is detected with 100 μL of 1 μg/ml anti-FAK polyclonal antibody (#65-6140, Upstate Biology Inc.), and phosphorylated FAK is detected with 100 μL of […] anti-phosphorylated FAK (Y397) antibody (Affinity BioReagents, #OPA1-03071) in BlockAce diluted at 1:10 with H2O. […] Absorbance at 405 nm is measured after 20 min incubation at room temperature. […]

[4] = tested on: Mouse mammary carcinoma 4T1 cells; test: Anchorage-independent tumor cell growth assay; type: cell-based; conditions: Ultra low Attachment plates, 48 h, read-out: IC50, 50% inhibition of growth
Procedure: Mouse mammary carcinoma 4T1 cells (5×10^3) are plated in 96-well Ultra low Attachment plates (#3474, Corning Inc.) in […] of Dulbecco's modified eagle medium containing 10% FBS. Cells are cultured for 2 h and inhibitors are added at various concentrations in a final concentration of 0.1% DMSO. After 48 h, cell growth is assayed with the cell counting kit-8 (Wako Pure Chemical), which uses a water soluble tetrazolium salt WST8. Twenty μL of the reagent is added into each well and cells are further cultured for 2 h. The optical density is measured at 450 nm. The concentration of compound causing 50% inhibition of growth may thus be determined.

- melting point: 72 to 75 °C
SMILES: COc1cc(Nc2nccc(Nc3cccc(C)c3S(N)(=O)=O)n2)cc(OC)c1OC [Example 3, 2-methyl-6-[2-(3,4,5-Trimethoxy-phenylamino)-pyrimidin-4-ylamino]-benzenesulfonamide]

- IC50 [1]: 12 nM
SMILES: COc1cc(Nc2nccc(Nc3cccc(OC)c3S(N)(=O)=O)n2)cc(OC)c1OC [Example 4, 2-Methoxy-6-[2-(3,4,5-trimethoxy-phenylamino)-pyrimidin-4-ylamino]-benzenesulfonamide]

- IC50 [2]: 150 nM
SMILES: Cc1cccc(Nc2ccnc(Nc3cccc(OCCn4ccnc4)c3)n2)c1S(N)(=O)=O [Example 128]

- IC50 [3]: 15 nM
SMILES: CNS(=O)(=O)c1ccccc1Nc1nc(Nc2cccc(C)c2)ncc1Br [Example 188]

- IC50 (FAK): 440 nM
SMILES: CNS(=O)(=O)c1cc(F)ccc1Nc1nc(Nc2cc(OC)c(OC)c(OC)c2)ncc1Br [Example 190]

- IC50 (FAK): 43 nM
SMILES: CNS(=O)(=O)c1ccccc1Nc1nc(Nc2ccc3cn[nH]c3c2)ncc1Br [Example 198]

- IC50 [3]: 1 nM
SMILES: CNS(=O)(=O)c1ccccc1Nc1nc(Nc2cc(OC)c(OC)c(OC)c2)ncc1C(F)(F)F [Example 208]

- IC50 [4]: 16 nM
SMILES: CNS(=O)(=O)c1ccccc1Nc1nc(Nc2cc(OC)c(OC)c(OC)c2)ncc1Cl [Example 213]
